Experimental data taken from patent publication US7247649B2, “Oxazoles, their manufacture and use as pharmaceutical agents” (Hoffmann-La Roche Inc., priority 2003, dated 2007).

Assays:
[1] = system: A549 cells (human lung carcinoma cell line); assay: A549 MTT cell proliferation assay (HER-signalling pathway inhibitors); format: cell-based; conditions: for IC50: Homo sapiens, A549 cells, 5 days (120 h) incubation, MTT readout at 550 nm, 3 μM to 0.15 nM; for activity (in words): reference compound in the A549 biological assay
Protocol: A549 cells (human lung carcinoma cell line) were cultivated in RPMI 1640, 2.5% FCS, 2 mM Glutamine, 100 u/ml Penicillin, 100 μg/ml Streptomycin. For the assay the cells were seeded in 384 well plates, 900 cells per well, in the same medium. The next day compounds (dissolved 10 mM in DMSO) were added in various concentrations ranging from 3 μM to 0.15 nM (10 concentrations, 1:3 diluted). After 5 days the MTT assay was done mainly according to the instructions of the manufacturer (Cell proliferation kit I, MTT, from Roche Molecular Biochemicals). In brief: MTT labeling reagent was added to a final concentration of 0.5 mg/ml, added and incubated for 4 hrs at 37 C, 5% CO2. During this incubation time purple formazan crystals are formed. After addition of the solubilization solution (20% SDS in 0.02 M HCl) the plates were incubated overnight at 37° C., 5% CO2. After careful mixing plates were measured in Victor 2 (scanning multiwell spectrophotometer, Wallac) at 550 nm.
A decrease in number of living cells results in a decrease in the total metabolic activity in the sample. The decrease directly correlates to the amount of purple color resulting from the solubilization of the purple formazan crystals.
A549: 900 cells in 60 μl per well of 384 well plate (Greiner)
Medium: RPMI 1640, 2.5% FCS, glutamine, pen/strep.
Induction: • Dilution of compound in DMSO: 3 μl 10 mM+27 μl DMSO, dilute 1:3 • Add 2 μl of compound dilution row to 95 ul of medium • Add 10 μl of compound dilution to 60 μl medium in test plate→0.3% DMSO per well • Incubate 120 h (5 days) at 37° C., 5% CO2
Analysis: • Add 7 μl MTT (5 mg 7 ml/well), incubate 4 h at 37° C. • Add 30 μl lysis buffer (20% SDS, 0.04 N HCl) per well • Incubate overnight at 37° C.
Measurement: • Victor 2, 550 nm • Determination of IC50 was done using XL-fit.

Row | SMILES | IC50 [1] [µM] | activity (in words) [1] | melting point [°C]
1 | Fc1cc(C(F)(F)F)ccc1/C=C/c1nc(COc2ccc(CCCCn3ccnn3)cc2)co1 [Example 3, 1-[4-(4-{2-[2-(E)-(2-Fluoro-4-trifluoromethyl-phenyl)-vinyl]-oxazol-4-ylmethoxy}-phenyl)-butyl]-1H-[1,2,3]triazole] | 0.002 | – | –
2 | Clc1ccc(/C=C/c2nc(COc3ccc(CCCCn4ccnn4)cc3)co2)cc1Cl [Example 5, 1-[4-(4-{2-[2-(E)-(3,4-Dichloro-phenyl)-vinyl]-oxazol-4-ylmethoxy}-phenyl)-butyl]-1H-[1,2,3]triazole] | 0.9 | do not have reasonable activity | –
3 | FC(F)(F)c1cccc(/C=C/c2nc(COc3ccc(CCCCn4ccnn4)cc3)co2)c1 [Example 4, 1-[4(4-{2-[2-(E)-(3-Trifluoromethyl-phenyl)-vinyl]-oxazol-4-ylmethoxy}-phenyl)-butyl]-1H-[1,2,3]triazole] | 3.55 | inactive | –
4 | Fc1cc(/C=C/c2nc(COc3ccc(CCCCn4ccnn4)cc3)co2)ccc1Cl [Example 1, 1-[4-(4-{2-[2-(E)-(4-Chloro-3-fluoro-phenyl)-vinyl]-oxazol-4-ylmethoxy}-phenyl)-butyl]1H-[1,2,3]triazole] | 0.46 | do not have reasonable activity | 146 to 149
5 | FC(F)(F)c1ccc(C=Cc2nc(COc3ccc(CCCCn4ccnn4)cc3)co2)cc1 [reference, 1-[4-(4-{2-[2-(4-trifluoromethyl-phenyl)-vinyl]-oxazol-4-ylmethoxy}-phenyl)-butyl]-1H-[1,2,3]triazole, reference compound] | 0.007 | less activity than the compounds of the present invention | –
6 | Fc1cc(Cl)ccc1/C=C/c1nc(COc2ccc(CCCCn3ccnn3)cc2)co1 [Example 2, 1-[4-(4-{2-[2-(E)-(4-Chloro-2-fluoro-phenyl)-vinyl]-oxazol-4-ylmethoxy}-phenyl)-butyl]-1H-[1,2,3]triazole] | < 0.005 | – | –
